Earlier results in patent publication US7090851B1, “Long lasting fusion peptide inhibitors of viral infection” (priority 1999, dated 2006).
“Also recorded” adds a separate entry of the source.

Tested on: simian immunodeficiency virus (SIV)
Conditions: as crude peptide

Q: Which “anti-SIV activity” value does the source give for “QEWERKVDFLEENITALLEEAQIQQEKNMYELQKL [SEQ ID NO:65]” here?
A: potent antiviral activity

Q: With “FLEENITALLEEAQIQQEKNMYELQKLNSWDVFGN [SEQ ID NO:73]” as the substance, how does the “anti-SIV activity” value read?
A: potent antiviral activity

Q: Which “anti-SIV activity” value does the source give for “WERKVDFLEENITALLEEAQIQQEKNMYELQKLNS [SEQ ID NO:67]” here?
A: potent antiviral activity

Q: For “VDFLEENITALLEEAQIQQEKNMYELQKLNSWDVF [SEQ ID NO:71]”, which “anti-SIV activity” value is on record?
A: potent antiviral activity

Q: For “KVDFLEENITALLEEAQIQQEKNMYELQKLNSWDV [SEQ ID NO:70]”, which “anti-SIV activity” value is on record?
A: potent antiviral activity

Q: For “DFLEENITALLEEAQIQQEKNMYELQKLNSWDVFG [SEQ ID NO:72]”, which “anti-SIV activity” value is on record?
A: potent antiviral activity

Q: Which “anti-SIV activity” value does the source give for “WQEWERKVDFLEENITALLEEAQIQQEKNMYELQK [SEQ ID NO:64]” here?
A: potent antiviral activity

Q: For “RKVDFLEENITALLEEAQIQQEKNMYELQKLNSWD [SEQ ID NO:69]”, which “anti-SIV activity” value is on record?
A: potent antiviral activity

Q: Which “anti-SIV activity” value does the source give for “ERKVDFLEENITALLEEAQIQQEKNMYELQKLNSW [SEQ ID NO:68]” here?
A: potent antiviral activity

Q: Which “anti-SIV activity” value does the source give for “EWERKVDFLEENITALLEEAQIQQEKNMYELQKLN [SEQ ID NO:66]” here?
A: potent antiviral activity

Tested on: measles virus (MeV)
Conditions: MeV-infected and uninfected Vero cells

Q: With “HRIDLGPPISLERLDVGTNLGNAIAKLEAKELLE [SEQ ID NO:77]” as the substance, how does the “inhibition of MeV viral infection, fusion and syncytia formation” value (shortened to “inhibition of MeV viral infection”) read?
A: inhibits viral infection

Q: With “IDLGPPISLERLDVGTNLGNAIAKLEAKELLESS [SEQ ID NO:79]” as the substance, how does the “inhibition of MeV viral infection” value read?
A: inhibits viral infection

Q: With “PISLERLDVGTNLGNAIAKLEAKELLESSDQILR [SEQ ID NO:84]” as the substance, how does the “inhibition of MeV viral infection” value read?
A: inhibits viral infection

Tested on: human parainfluenza virus 3 (HPIV3)
Conditions: HPIV3-infected Hep2 cells and uninfected CV-1W cells

Q: With “ALDPIDISIELNKAKSDLEESKEWIRRSNQKLDSI (VALDPIDISIELNKAKSDLEESKEWIRRSNQKLDS) [SEQ ID NO:38, anti-HPIV peptide]” as the substance, how does the “inhibition of HPIV3 viral infection, fusion and syncytia formation” value (“inhibition of HPIV3 viral infection” for short) read?
A: inhibits viral infection

Q: With “IDISIELNKAKSDLEESKEWIRRSNQKLDSIGNWH (PIDISIELNKAKSDLEESKEWIRRSNQKLDSIGNW) [SEQ ID NO:42, anti-HPIV peptide]” as the substance, how does the “inhibition of HPIV3 viral infection” value read?
A: inhibits viral infection

Q: With “DPIDISIELNKAKSDLEESKEWIRRSNQKLDSIGN (LDPIDISIELNKAKSDLEESKEWIRRSNQKLDSIG) [SEQ ID NO:40, anti-HPIV peptide]” as the substance, how does the “inhibition of HPIV3 viral infection” value read?
A: inhibits viral infection

Q: For “RSDIEKLKEAIRDTNKAVQSVQSSIGNLIVAIKSV [SEQ ID NO:58]”, which “inhibition of HPIV3 viral infection” value is on record?
A: inhibits viral infection

Q: Which “inhibition of HPIV3 viral infection” value does the source give for “VEAKQARSDIEKLKEAIRDTNKAVQSVQSSIGNLI [SEQ ID NO:52]” here?
A: inhibits viral infection

Q: Which “inhibition of HPIV3 viral infection” value does the source give for “NSVALDPIDISIELNKAKSDLEESKEWIRRSNQKL (NNSVALDPIDISIELNKAKSDLEESKEWIRRSNQK) [SEQ ID NO:35, anti-HPIV peptide]” here?
A: inhibits viral infection

Q: For “PIDISIELNKAKSDLEESKEWIRRSNQKLDSIGNW (DPIDISIELNKAKSDLEESKEWIRRSNQKLDSIGN) [SEQ ID NO:41, anti-HPIV peptide]”, which “inhibition of HPIV3 viral infection” value is on record?
A: inhibits viral infection

Q: For “LDPIDISIELNKAKSDLEESKEWIRRSNQKLDSIG (ALDPIDISIELNKAKSDLEESKEWIRRSNQKLDSI) [SEQ ID NO:39, anti-HPIV peptide]”, which “inhibition of HPIV3 viral infection” value is on record?
A: inhibits viral infection

Tested on: HIV-1
Conditions: infection and cell-cell fusion

Q: For enfuvirtide, which “anti-HIV-1 activity (words)” value is on record?
A: potent inhibitor of HIV-1; also recorded: potent anti-HIV-1 activity

Same assay, conditions: infection and cell-cell fusion; listed as DP-107

Q: Which “anti-HIV-1 activity (words)” value does the source give for “NNLLRAIEAQQHLLQLTVWQIKQLQARILAVERYLKDQ [DP107]” here?
A: potent inhibitors of HIV-1 infection and fusion

Same assay, conditions: infection and cell-cell fusion; listed as DP-178

Q: Which “anti-HIV-1 activity (words)” value does the source give for enfuvirtide here?
A: potent inhibitors of HIV-1 infection and fusion

Tested on: respiratory syncytial virus (RSV)
Conditions: Hep-2 cells

Q: With “IALLSTNKAVVSLSNGVSVLTSKVLDLKNYIDK [SEQ ID NO:29, anti-RSV peptide]” as the substance, how does the “concentration inhibiting fusion and syncytia formation between RSV-infected and uninfected Hep-2 cells” value read?
A: less than 50 μg/ml

Same assay, conditions: RSV-infected and uninfected Hep-2 cells

Q: With “VITIELSNIKENKCNGAKVKLIKQELDKYKNAV (VITIELSNIKENKCNGDAKVKLIKQELDKYKNAV) [SEQ ID NO:16, anti-RSV peptide]” as the substance, how does the “inhibition of RSV viral infection, fusion and syncytia formation” value (from here on “inhibition of RSV viral infection”) read?
A: inhibits viral infection

Q: For “TSVITIELSNIKENKCNGAKVKLIKQELDKYKN (TSVITIELSNIKENKCNGDAKVKLIKQELDKYKN) [SEQ ID NO:15, anti-RSV peptide]”, which “inhibition of RSV viral infection” value is on record?
A: inhibits viral infection

Q: For “YTSVITIELSNIKENKCNGAKVKLIKQELDKYK (YTSVITIELSNIKENKCNGDAKVKLIKQELDKYK) [SEQ ID NO:14, anti-RSV peptide]”, which “inhibition of RSV viral infection” value is on record?
A: inhibits viral infection

Q: Which “inhibition of RSV viral infection” value does the source give for “IALLSTNKAVVSLSNGVSVLTSKVLDLKNYIDK [SEQ ID NO:29, anti-RSV peptide]” here?
A: inhibits viral infection
